Experimental data reported in US9790136B2, “Urea and nitrogen stabilizer compositions and methods and systems of making and using thereof” (Koch Agronomic Services, LLC, priority 2013, dated 2017).
Like-named read-outs stand apart in the source and are kept apart here.

Legend:
[1] = cited from earlier work
[2] = Crush strength of urea particles; format: physicochemical; conditions: average strength of 20 particles
Procedure: The crush strength was determined by subjecting individual particles of urea to a measured force, applied by means of a metal plunger. The force, at which the particle fractures, was taken as a measure of strength. The average strength of 20 particles were reported.

[3] = SGN of granular product (product specifications); format: physicochemical; conditions: average
[4] = Water, HCHO and biuret content of urea compositions by IR and/or HPLC; format: physicochemical; conditions: average
Procedure: The water, HCHO, NBPT and biuret content of the urea compositions were analyzed by IR and/or HPLC. All concentrations were calculated in μg/ml unless otherwise noted. HPLC samples were prepared by weighing approximately 0.4 grams of sample into a 10-20 mL disposable glass vial or volumetric flask. For high concentration samples (>30% inhibitor), approximately 0.025 grams of sample was weighed into a 100 mL volumetric flask. For lower concentration samples, 10 mL of water was added and the sample was shaken until the sample was dissolved. For higher concentration samples, the sample was diluted to the 100 mL mark with diluent. A disposable dropper was used to transfer the sample into an autosampler vial. The sample was analyzed in duplicate including a diluent blank using the conditions below. The evaluation was carried out by the method of external standard with the calibration using a calibration line. A minimum of 2 sets of standards as set out below were run before and after unknowns. RSD is the relative deviation in rel. %, calculated from three repeats of sampling and two repeats of analysis of each sample (see EP 15688). […]
The chromatogram was evaluated at the wavelength of 214 nm. […]

Crush Strength [2] [lbs] | SGN [3] | % HCHO [4] [%] | Compound | half-life of NBPT ([1]; NBPT injected into the melted urea before granulation) | half-life of NBPT ([1]; surface-treated urea)
 |  |  | CCCCNP(N)(N)=S [NBPT, N-(n-butyl) thiophosphoric triamide] | more than one | about six
7.5 | 277.0 | <0.5 | NC(N)=O [Urea] |  | 
